Test results: US20230406853A1, “COVALENT CDK2-BINDING COMPOUNDS FOR THERAPEUTIC PURPOSES” (Umbra Therapeutics, Inc., priority 2021, published 2023)

biological target: CycE1-CDK2 (Homo sapiens, UniProt P24941); test: Cdk2 Enzymatic TR-FRET Assay; assay type: biochemical; conditions: CDK2/CycE 5 nM, ATP 100 μM, 60 minutes pre-incubation with compound; read-out: CDK2 Kinase
Excerpt: A TR-FRET system was used to detect CycE1-CDK2 kinase activity. The assay used a Europium-labeled anti-phospho-Ser/Thr antibody and ULight™-labeled peptide substrate (eIF4E-binding protein 1). When CycE1-CDK2 phosphorylates the peptide the phosphorylated Thr is recognized by the Europium-labeled anti-phospho-Ser/Thr antibody. Upon excitation of the Europium donor fluorophore at 337 nm, energy is transferred to the ULight™ acceptor dye on the substrate, resulting in the emission of light at 665 nm. The fluorescent signal is proportional to the level of ULight™ peptide phosphorylation and to the kinase activity.
The stock solution was prepared as follows: • 1× Reaction buffer: 50 mM HEPES pH 7.5, 10 mM MgCl2, 0.5 mM TCEP, 0.01% Tween®20, 1 mM EGTA, 0.001% fatty acid free (faf)-BSA; • 1× Detection buffer: equilibrate the Detection buffer at RT for at least 20 minutes then dilute 10-fold the stock in water; • 4×ENZYME mix: CDK2/CycE enzyme (5 nM final concentration in kinase reaction) in 1× Reaction buffer; • 4×SUBSTRATE mix: 4E-BP substrate (50 nM final concentration in kinase reaction)+ATP (100 μM final concentration in kinase reaction) in 1× Reaction buffer • 2×STOP/DETECTION mix: EDTA (10 mM final concentration in assay)+Anti-Phosphate antibody (0.5 nM final concentration in assay) in 1× Detection buffer • Neutral Control: Assay with no inhibition (MAX activity) • Inhibitor Control: Assay with IC100 (1 mM) reference inhibitor JNJ7706621 (MIN activity)
The assay was assembled directly in a white, small volume, Proxiplate (PerkinElmer) as follows: • Step 1: Charge compounds=5 μL/well • Step 2: Charge kinase=2.5 μL/well→total volume 7.5 μL/well • The plate is sealed and incubated at room temperature for 60 minutes • Step 3: Substrate mix (substrate/ATP)=2.5 μL/well→total enzymatic reaction volume 10 μL/well • The plate is sealed and incubated at room temperature for 60 minutes • Step 4: Stop/Detection mix (EDTA/antibody)=10 μL/well→total volume 20 μL/well • The plate is sealed and incubated at room temperature for at least 2 hours and fluorescence signal is measured at PHERAstar FSX The reading conditions are the followings for PHERAstar FSX:
A 384-microtiter plate (MTP), containing 20 test compounds in eight-points dose response, is prepared. Test compounds dose response curves are prepared in automation in 100% DMSO in a CyBio Felix, starting from a DMSO stock solution of 10 mM. To obtain the eight-points dose-response curve, a serial dilution protocol in 100% DMSO is performed for each compound by using a 96 MTP as a support. 20 μL of the 10 mM stock solutions are transferred in row A of a 96 MTP U-bottom from column 2 to 11 for a total of 10 compounds/plate. Starting from the 10 mM stock, serial dilutions across rows, from A to B and proceeding up to H, are performed for each compound by transferring 6.3 μL of the more concentrated fluid in 13.7 μL of 100% DMSO.
In order to generate duplicate data points each well of the 96 MTP is then replicated into two wells of a 384 MTP plate for each compound and for each concentration to be tested. The 384 MTP compound plate is used as source plate in a “mother to child” process with a CyBi®-Well dispenser in which 1 μL of compound is moved into a destination plate pre-filled with 24 μL of reaction buffer, obtaining 2× concentrated compound solution.
Genedata Screener® 17.0 was used for data analysis. In the implemented workflow, the following calculations were conducted: • Calculate the Response Value (KRV) from the respective original data as follow:
HTRF Assay: Ratio=665 nm_FRET/620 nm_Ab*10000 • Calculate the % Inhibition of the compound (Inhibitory effect). KRV was normalized versus Neutral Controls and Inhibitor Controls (JNJ7706621) to obtain Activity % according to the following formula:
Activity %=−100*(x−<Neutral Control>)/(<Inhibitor Control>−<Neutral Control>) […]

| SMILES | IC50 [µM] |
| --- | --- |
| CS(=O)(=O)N1CCC(Nc2ncc3cc(C(F)F)c(=O)n(CCOC(=O)c4ccc(S(=O)(=O)n5cnc(C6CC6)n5)cc4)c3n2)CC1 [Compound 227] | < 10 |
| CS(=O)(=O)N1CCC(Nc2ncc3ccc(=O)n(CC(=O)Nc4ccc(S(=O)(=O)n5cncn5)cc4)c3n2)CC1 [Compound 228] | < 10 |
| CS(=O)(=O)N1CCC(Nc2ncc3ccc(=O)n(CCOCCCS(=O)(=O)n4cnc(-c5ccccc5)n4)c3n2)CC1 [Compound 230] | 10 to 100 |
| CS(=O)(=O)N1CCC(Nc2ncc3cc(C(F)F)c(=O)n(CC(=O)Nc4ccc(S(=O)(=O)n5cnc(C6CC6)n5)cc4)c3n2)CC1 [Compound 234] | < 10 |
| CS(=O)(=O)N1CCC(Nc2ncc3ccc(=O)n(CC(=O)NCc4ccc(S(=O)(=O)n5cncn5)cc4)c3n2)CC1 [Compound 236] | < 10 |
| Cc1cc(NC(=O)Cn2c(=O)ccc3cnc(NC4CCN(S(C)(=O)=O)CC4)nc32)ccc1S(=O)(=O)n1cncn1 [Compound 237] | < 10 |
| Cc1cc(NC(=O)Cn2c(=O)ccc3cnc(NC4CCN(S(C)(=O)=O)CC4)nc32)ccc1S(=O)(=O)n1cnc(-c2ccccc2)n1 [Compound 238] | < 10 |
| Cc1cc(NC(=O)Cn2c(=O)ccc3cnc(NC4CCN(S(C)(=O)=O)CC4)nc32)ccc1S(=O)(=O)n1cnc(C2CC2)n1 [Compound 239] | < 10 |
| CS(=O)(=O)N1CCC(Nc2ncc3ccc(=O)n(Cc4ccc(S(=O)(=O)n5cnc(-c6ccccc6)n5)cc4)c3n2)CC1 [Compound 242] | < 10 |
| CS(=O)(=O)N1CCC(Nc2ncc3ccc(=O)n(CCCS(=O)(=O)n4cncn4)c3n2)CC1 [Compound 244] | < 10 |
| CS(=O)(=O)N1CCC(Nc2ncc3ccc(=O)n(CCCS(=O)(=O)n4cnc(C5CC5)n4)c3n2)CC1 [Compound 245] | < 10 |
| CS(=O)(=O)N1CCC(Nc2ncc3ccc(=O)n(CCCS(=O)(=O)n4cnc(-c5ccccc5)n4)c3n2)CC1 [Compound 246] | < 10 |
| CNc1ncc2ccc(=O)n(CC(=O)Nc3ccc(S(=O)(=O)n4cncn4)cc3)c2n1 [Compound 247] | < 10 |
| CNc1ncc2ccc(=O)n(CC(=O)Nc3ccc(S(=O)(=O)n4cnc(C5CC5)n4)cc3)c2n1 [Compound 248] | < 10 |
| Cc1cc(S(=O)(=O)n2cnc(C3CC3)n2)ccc1NC(=O)Cn1c(=O)ccc2cnc(NC3CCN(S(C)(=O)=O)CC3)nc21 [Compound 251] | < 10 |
| Cc1cc(S(=O)(=O)n2cnc(-c3ccccc3)n2)ccc1NC(=O)Cn1c(=O)ccc2cnc(NC3CCN(S(C)(=O)=O)CC3)nc21 [Compound 252] | < 10 |
| Cc1ncn(S(=O)(=O)c2ccc(NC(=O)Cn3c(=O)ccc4cnc(NC5CCN(S(C)(=O)=O)CC5)nc43)cc2)n1 [Compound 253] | < 10 |
| CC(C(=O)Nc1ccc(S(=O)(=O)n2cnc(C3CC3)n2)cc1)n1c(=O)ccc2cnc(NC3CCN(S(C)(=O)=O)CC3)nc21 (centres unmarked) [Compound 254] | < 10 |
| CC(C)c1ncn(S(=O)(=O)c2ccc(NC(=O)Cn3c(=O)ccc4cnc(NC5CCN(S(C)(=O)=O)CC5)nc43)cc2)n1 [Compound 255] | < 10 |
| CCOCc1cc2cnc(NC3CCN(S(C)(=O)=O)CC3)nc2n(CCCS(=O)(=O)n2cnc(-c3ccccc3)n2)c1=O [Compound 256] | > 200 |
| CS(=O)(=O)N1CCC(Nc2ncc3ccc(=O)n(CC(=O)Nc4ccc(S(=O)(=O)n5cnc(C6CCC6)n5)cc4)c3n2)CC1 [Compound 258] | > 200 |
| O=c1ccc2cnc(NC3CC(F)(F)C3)nc2n1CCCS(=O)(=O)n1cnc(C2CC2)n1 [Compound 263] | < 10 |
| CS(=O)(=O)N1CCC(Nc2ncc3ccc(=O)n(CCS(=O)(=O)n4cnc(C5CC5)n4)c3n2)CC1 [Compound 264] | < 10 |
| CCOCc1cc2cnc(NC3CCN(S(C)(=O)=O)CC3)nc2n(CCCS(=O)(=O)n2cncn2)c1=O [Compound 265] | 10 to 100 |
| O=c1ccc2cnc(NCC3CC3)nc2n1CCCS(=O)(=O)n1cnc(C2CC2)n1 [Compound 266] | 10 to 100 |
| O=c1ccc2cnc(NCC3CCCCC3)nc2n1CCCS(=O)(=O)n1cnc(C2CC2)n1 [Compound 268] | > 200 |
| O=c1ccc2cnc(NC3CCCCCC3)nc2n1CCCS(=O)(=O)n1cnc(C2CC2)n1 [Compound 270] | < 10 |
| CC(=O)Nc1ncn(S(=O)(=O)c2ccc(NC(=O)Cn3c(=O)ccc4cnc(NC5CCN(S(C)(=O)=O)CC5)nc43)cc2)n1 [Compound 272] | < 10 |

Continued, values first:

| IC50 [µM] | SMILES |
| --- | --- |
| < 10 | CS(=O)(=O)N1CCC(Nc2ncc3cc(C(F)F)c(=O)n(CCOC(=O)c4ccc(S(=O)(=O)n5cncn5)cc4)c3n2)CC1 [Compound 226] |
| < 10 | CS(=O)(=O)N1CCC(Nc2ncc3ccc(=O)n(CC(=O)Nc4ccc(S(=O)(=O)n5cnc(-c6ccccc6)n5)cc4)c3n2)CC1 [Compound 229] |
| < 10 | CS(=O)(=O)N1CCC(Nc2ncc3ccc(=O)n(CCOCCCS(=O)(=O)n4cncn4)c3n2)CC1 [Compound 231] |
| < 10 | CS(=O)(=O)N1CCC(Nc2ncc3ccc(=O)n(CC(=O)Nc4ccc(S(=O)(=O)n5cnc(C6CC6)n5)cc4)c3n2)CC1 [Compound 232] |
| < 10 | CS(=O)(=O)N1CCC(Nc2ncc3ccc(=O)n(CCOCCCS(=O)(=O)n4cnc(C5CC5)n4)c3n2)CC1 [Compound 233] |
| < 10 | CS(=O)(=O)N1CCC(Nc2ncc3ccc(=O)n(CC(=O)NCc4ccc(S(=O)(=O)n5cnc(C6CC6)n5)cc4)c3n2)CC1 [Compound 235] |
| < 10 | CS(=O)(=O)N1CCC(Nc2ncc3ccc(=O)n(CC(=O)NCc4ccc(S(=O)(=O)n5cnc(-c6ccccc6)n5)cc4)c3n2)CC1 [Compound 240] |
| < 10 | CS(=O)(=O)N1CCC(Nc2ncc3ccc(=O)n(Cc4ccc(S(=O)(=O)n5cncn5)cc4)c3n2)CC1 [Compound 241] |
| < 10 | CS(=O)(=O)N1CCC(Nc2ncc3ccc(=O)n(Cc4ccc(S(=O)(=O)n5cnc(C6CC6)n5)cc4)c3n2)CC1 [Compound 243] |
| > 200 | CNc1ncc2ccc(=O)n(CC(=O)Nc3ccc(S(=O)(=O)n4cnc(-c5ccccc5)n4)cc3)c2n1 [Compound 249] |
| < 10 | Cc1cc(S(=O)(=O)n2cncn2)ccc1NC(=O)Cn1c(=O)ccc2cnc(NC3CCN(S(C)(=O)=O)CC3)nc21 [Compound 250] |
| < 10 | O=c1ccc2cnc(NC3CCOCC3)nc2n1CCCS(=O)(=O)n1cnc(C2CC2)n1 [Compound 257] |
| < 10 | CS(=O)(=O)N1CCC(Nc2ncc3ccc(=O)n(CC(=O)Nc4ccc(S(=O)(=O)n5cnc(CO)n5)cc4)c3n2)CC1 [Compound 259] |
| < 10 | CCOC(=O)Cc1ncn(S(=O)(=O)c2ccc(NC(=O)Cn3c(=O)ccc4cnc(NC5CCN(S(C)(=O)=O)CC5)nc43)cc2)n1 [Compound 260] |
| 10 to 100 | CCOCc1cc2cnc(NC3CCN(S(C)(=O)=O)CC3)nc2n(CCCS(=O)(=O)n2cnc(C3CC3)n2)c1=O [Compound 261] |
| > 200 | CC(C)(C)c1ncn(S(=O)(=O)c2ccc(NC(=O)Cn3c(=O)ccc4cnc(NC5CCN(S(C)(=O)=O)CC5)nc43)cc2)n1 [Compound 262] |
| 10 to 100 | O=c1ccc2cnc(NC3CCOC3)nc2n1CCCS(=O)(=O)n1cnc(C2CC2)n1 (centres unmarked) [Compound 267] |
| < 10 | CC(C)CNc1ncc2ccc(=O)n(CCCS(=O)(=O)n3cnc(C4CC4)n3)c2n1 [Compound 269] |
| < 10 | O=c1ccc2cnc(NC3CC3)nc2n1CCCS(=O)(=O)n1cnc(C2CC2)n1 [Compound 271] |
